Biological target: T1, mouse EP2 receptor (Mus musculus, UniProt Q62053)
T1 construct: expressed in transfected cells; host or cells: CHO cells (membrane fraction)
Assay: Receptor-binding experiment (3H-PGE2 displacement) using membranes of CHO cells expressing prostanoid receptor sub-type EP2
Details: inhibition of 3H-PGE2 (2.5 nM) binding, CHO cell membrane fraction, room temperature 1 hour, pH 6.0; Ki=IC50/(1+([C]/Kd))
Method: (i) Experiment for Receptor-Binding Using Cells Which Express Prostanoid Receptor Sub-Types
According to the method of Sugimoto et al. (J. Biol. Chem., 267, 6463-6466 (1992)), CHO cells which expressed prostanoid receptor sub-types (murine EP1, EP2, EP3α, and EP4, respectively) were prepared and used as membrane authentic samples.
A reaction solution (200 μl) containing the prepared membrane fraction (0.5 mg/ml) and ^3H-PGE2 was incubated at room temperature for 1 hour. The reaction was terminated with ice cold buffer (3 ml), and the reaction mixture was filtered under suction through a glass filter (GF/B), on which the binding ^3H-PGE2 was trapped, and the binding radioactivity was measured by means of a liquid scintillator.
The Kd value was obtained from the Scatchard plots [Ann. N.Y. Acad. Sci., 51, 660 (1949)]. Non-specific binding was obtained as the binding in the presence of an excess amount (2.5 μM) of unlabelled PGE2. Measurement of the binding inhibition for ^3H-PGE2 with the compounds of the present invention was performed by adding ^3H-PGE2 (2.5 nM) and a series of concentrations of the compound of the present invention. In this reaction, the following buffer was used in all cases. • Buffer: 10 mM potassium phosphate (pH 6.0), 1 mM EDTA, 10 mM MgCl2, and 0.1M NaCl.
Dissociation constant Ki (μM) of each compound was calculated from the following equation. […]

T1 sequence (Q62053 whole entry): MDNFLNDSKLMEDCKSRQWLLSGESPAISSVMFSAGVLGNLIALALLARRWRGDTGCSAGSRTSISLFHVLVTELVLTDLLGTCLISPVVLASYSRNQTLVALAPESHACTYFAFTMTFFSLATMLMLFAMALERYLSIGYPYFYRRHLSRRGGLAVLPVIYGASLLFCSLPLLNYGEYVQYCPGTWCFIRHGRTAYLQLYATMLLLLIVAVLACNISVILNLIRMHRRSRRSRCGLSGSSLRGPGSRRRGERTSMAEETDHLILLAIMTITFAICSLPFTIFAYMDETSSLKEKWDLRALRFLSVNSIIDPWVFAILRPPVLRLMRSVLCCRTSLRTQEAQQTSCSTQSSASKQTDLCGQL

Ki: 14 nM
Compound: CCCCc1ccc(C2CCC(=O)N2CCSc2nc(C(=O)O)cs2)cc1 (stereo not shown) [Example 4(1), 2-(2-(2-(4-n-butylphenyl)-5-oxopyrrolidin-1-yl)ethylthio)thiazole-4-carboxylic acid]
